Tests used:
Oryctolagus cuniculus = organism: Oryctolagus cuniculus; assay: Inhibition of K+ induced contraction of rabbit aorta; assay type: functional; conditions: read-out: I50
[1] = Inhibition of [3H]D-cis-diltiazem binding to calcium channel of isolated guinea pig skeletal muscle microsomal preparation; assay type: microsomes, Cavia porcellus, Muscle tissue

IC50 (Oryctolagus cuniculus) [nM]	SMILES	Kd [1] [nM]
1800	COc1ccc([C@@H]2Sc3ccccc3N(CCN(C)C)C(=O)[C@@H]2OC(C)=O)cc1 [DILTIAZEM]	380
950	COc1ccc([C@@H]2CC3c4ccccc4C2C[C@@]32CCNC2)cc1 (stereo partly specified)	330
2000	COc1ccc([C@@H]2CC3c4ccccc4C2C[C@]32CCNC2)cc1 (stereo partly specified)	1260

Reference: ChEMBL document CHEMBL1126338, “The synthesis of a conformationally rigid calcium channel blocker” (Bioorg Med Chem Lett, 1992)
